MIC data for 16 compounds are collected here from patent US20220226219A1, “ANTIMICROBIAL COMPOSITIONS” (Conopco, Inc., d/b/a UNILEVER, priority 2019, published 2022).

In the test the test system is Gram negative fermenting bacteria; Enterobacter gergoviae and Klebsiella species. Briefly: Liquid broth MIC assay of individual chemicals. It is filed as cell-based. The conditions noted are these: tryptic soy broth, 30° C., 24 hours, OD600, MIC = concentration at which <25% growth vs positive growth control.
Description: Liquid broth assays (MIC and checkerboard) were conducted to identify the minimum concentration(s) of individual and tertiary antimicrobial chemicals. A modified methodology to ISO 20776-1:2006 was utilized for the screening as follows. Stock solutions of antimicrobial chemicals and tryptic soy broth were inoculated with 1-5×10^6 microorganism mixture of Gram negative fermenting bacteria; Enterobacter gergoviae and Klebsiella species.
Samples were incubated at 30° C. for 24 hours, after which optical densities at OD600 nm were measured.
On to `CC(=O)OC/C=C(\C)CCC=C(C)C` [Geranyl Acetate], for which the MIC was determined as 2 wt %. For `Cc1cc(CC(C)CC(C)(C)C)n(O)c(=O)c1.NCCO` (stereo not shown) [Octopirox, piroctone olamine, reference compound], the MIC is given as 0.063 wt %. On to `CC1CCC(C(C)C)C(O)C1` (stereo not shown) [Menthol], for which the MIC was 2 wt %. For the compound `CC(C)=CCCC(C)CCO` (stereo not shown) [Citroneol], the MIC came to 2 wt %.

Turning to `CC1=CC[C@@H](C(C)(C)O)CC1` [Terponeol], the MIC was 0.125 wt %. Under `CCCC(=O)OCC` [Ethyl Butyrate] stands 2 wt %; under `C=C(C)[C@H]1CC=C(C)CC1` [Limonene], 2 wt %.

`CC12CCC(CC1)C(C)(C)O2` [Eucalyptol] returned an MIC of 2 wt %. As for `CCCCCCOC(C)=O` [Hexyl acetate], the MIC is 2 wt %.

The compound `C=C(CC(=O)O)C(=O)O` [ltaconic Acid] gave an MIC of 0.5 wt %. For the compound `OCCc1ccccc1` [Phenethyl Alcohol], the MIC is listed as 0.5 wt %. Take `CCCCCCCC1CCC(=O)O1` (stereo not shown) [Gamma Undecalactone]: the MIC is 2 wt %. For the compound `O=C([O-])c1ccccc1.[Na+]` [Sodium benzoate], the MIC is listed as 0.5 wt %. `CC(=O)OCc1ccccc1` [Benzyl Acetate]: the MIC is reported as 2 wt %. In turn, `C=CCc1ccc(O)c(OC)c1` [Eugenol] gave an MIC of 0.063 wt %. Consider `CC(C)=CCC/C(C)=C/CO` [Geraniol Natural, Geraniol], for which the MIC is listed as 2 wt %.
